Measured values taken from PMC11904993, “Humanized Candida and NanoBiT Assays Expedite Discovery of Bdf1 Bromodomain Inhibitors With Antifungal Potential” (Advanced Science, 2025).
“And” between values parts separate entries of the source, which are not always exact repeats. Equal values may be shown once. Read-outs that look alike come from different tables or passages of the source.

Tests used:
CgBdf1 BD1 [1] = experiment: Histone peptide array assay; conditions: for Normalized (0 to 100%), WT / Normalized (0 to 100%), YF mutant: mean of the two raw values
Experimental: (§1) The array was prepared as described in the manufacturer's instructions. […] The array was then washed three times with binding buffer. Anti‐GST antibody (GE Healthcare) was used for the detection of GST‐tagged bromodomains.

CgBdf1 BD1 [2] = target: CgBdf1 BD1 (Candida glabrata, UniProt Q6FWV7); experiment: HTRF assay, inhibition of H4ac4 peptide binding; set-up: species or system C. glabrata
CgBdf1 BD2 [3] = target: CgBdf1 BD2 (Candida glabrata, UniProt Q6FWV7); experiment: biochemical; format: binding, C. glabrata
human Brd4 BD2 = target: T1, human Brd4 BD2 (Homo sapiens, UniProt O60885); experiment: HTRF assay, inhibition of H4ac4 peptide binding; conditions: Table S3; estimate, preliminary single-replicate HTRF assay; read-out: IC50 Brd4 BD2
T1 construct: GST‐tagged BD2 (residues 349–460) from human Brd4 (UniProt ID O60885); purchased Reaction Biology Corp

human Brd4 BD1 = human Brd4 BD1 (Homo sapiens, UniProt O60885); experiment: HTRF assay, inhibition of H4ac4 peptide binding
[4] = system: C. glabrata strains expressing WT and mutant Bdf1; experiment: Growth inhibition in liquid media, C. glabrata lab strains; conditions: Nakaseomyces glabratus, single experiments Exp1-3
Experimental: Growth on Liquid Media with C. glabrata Lab Strains: Cells were grown at 30 °C in SC+M+C‐U medium (SC medium with 5 mM methionine, 0.25 mM cysteine, without uracil) to an OD600 of 0.5–0.8. […] Plates were incubated at 30 °C and OD600 was measured using a Multiskan FC Microplate Photometer (Thermo Fisher).

CgBdf1 BD2 [5] = experiment: Histone peptide array assay; conditions: for Normalized (0 to 100%), WT / Normalized (0 to 100%), YF mutant: mean of the two raw values
Experimental: as §1

[6] = peptide array signal, CgBdf1 BD1 WT, first replicate column
[7] = peptide array signal, CgBdf1 BD1 WT
[8] = peptide array signal, CgBdf1 BD1 WT, second replicate column
[9] = peptide array signal, CgBdf1 BD1 YF mutant, first replicate column
[10] = peptide array signal, CgBdf1 BD1 YF mutant
[11] = peptide array signal, CgBdf1 BD1 YF mutant, second replicate column
[12] = peptide array signal, CgBdf1 BD2 WT, first replicate column
[13] = peptide array signal, CgBdf1 BD2 WT
[14] = peptide array signal, CgBdf1 BD2 WT, second replicate column
[15] = peptide array signal, CgBdf1 BD2 YF mutant, first replicate column
[16] = peptide array signal, CgBdf1 BD2 YF mutant
[17] = peptide array signal, CgBdf1 BD2 YF mutant, second replicate column

CgBdf1 BD1 (Candida glabrata, UniProt Q6FWV7), sequence (Q6FWV7 entry or part of it): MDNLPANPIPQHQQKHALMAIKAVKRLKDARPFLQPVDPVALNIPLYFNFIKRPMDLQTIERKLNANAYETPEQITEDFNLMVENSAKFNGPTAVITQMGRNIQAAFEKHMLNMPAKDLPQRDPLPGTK
CgBdf1 BD2 (Candida glabrata, UniProt Q6FWV7), sequence (Q6FWV7 entry or part of it): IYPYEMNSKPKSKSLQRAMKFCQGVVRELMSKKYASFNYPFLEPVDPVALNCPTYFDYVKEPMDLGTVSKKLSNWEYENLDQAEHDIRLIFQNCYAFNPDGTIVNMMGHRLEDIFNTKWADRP

Structure (SMILES)	Raw data, WT (CgBdf1 BD1 [1]; [6])	Normalized (0 to 100%), WT (CgBdf1 BD1 [1]; [7]) [%]	Raw data, WT (CgBdf1 BD1 [1]; [8])	Raw data, YF mutant (CgBdf1 BD1 [1]; [9])	Normalized (0 to 100%), YF mutant (CgBdf1 BD1 [1]; [10]) [%]	Raw data, YF mutant (CgBdf1 BD1 [1]; [11])	Raw data, WT (CgBdf1 BD2 [5]; [12])	Normalized (0 to 100%), WT (CgBdf1 BD2 [5]; [13]) [%]	Raw data, WT (CgBdf1 BD2 [5]; [14])	Raw data, YF mutant (CgBdf1 BD2 [5]; [15])	Normalized (0 to 100%), YF mutant (CgBdf1 BD2 [5]; [16]) [%]	Raw data, YF mutant (CgBdf1 BD2 [5]; [17])	further results
COc1ccc(CNc2nc(-c3ccccc3)nnc2C)cc1 [Compound 10]	–	–	–	–	–	–	–	–	–	–	–	–	Normalized (0 to 100%), WT, Average (CgBdf1 BD1 [1]; CgBdf1 BD1 WT, normalized peptide array signal): 2.21%; Raw data, WT, Left (CgBdf1 BD1 [1]; CgBdf1 BD1 WT, peptide array signal, left replicate): 0.006616; Raw data, WT, Rigt (CgBdf1 BD1 [1]; CgBdf1 BD1 WT, peptide array signal, right replicate): 0.03749; Normalized (0 to 100%), YF mutant, Average (CgBdf1 BD1 [1]; CgBdf1 BD1 YF mutant, normalized peptide array signal): 0.293%; Raw data, YF mutant, Left (CgBdf1 BD1 [1]; CgBdf1 BD1 YF mutant, peptide array signal, left replicate): 0.003085; Raw data, YF mutant, Right (CgBdf1 BD1 [1]; CgBdf1 BD1 YF mutant, peptide array signal, right replicate): 0.002776; IC50 (CgBdf1 BD1 [2]; Fig 2C original data, analogs of 24, single experiments Exp1-3, read-out: pIC50 CgBD1 (converted)): 2280 nM and 2580 nM and 1860 nM; IC50 (CgBdf1 BD1 [2]; Table S3, estimate, preliminary single-replicate HTRF assay, read-out: IC50 CgBdf1 BD1): 5000 nM; IC50 (CgBdf1 BD2 [3]; Fig 2C original data, analogs of 24, single experiments Exp1-3, read-out: pIC50 CgBD2 (converted)): > 100 µM; IC50 (CgBdf1 BD2 [3]; Table S3, estimate, preliminary single-replicate HTRF assay, read-out: IC50 CgBdf1 BD2): > 20 µM; IC50 (human Brd4 BD2): > 20 µM; IC50 (human Brd4 BD1): > 20 µM; EC50 ([4]; read-out: pEC50 (WT BDF1), Fig 2D (converted), WT C. glabrata): 180 µM; EC50 ([4]; read-out: pEC50 growth inhibition, Fig 2C (converted), strain BD1 Y-F): 149 µM; Normalized (0 to 100%), WT, Average (CgBdf1 BD2 [5]; CgBdf1 BD2 WT, normalized peptide array signal): 0.608%; Raw data, WT, Left (CgBdf1 BD2 [5]; CgBdf1 BD2 WT, peptide array signal, left replicate): 0.004055; Raw data, WT, Rigt (CgBdf1 BD2 [5]; CgBdf1 BD2 WT, peptide array signal, right replicate): 0.00811; Normalized (0 to 100%), YF mutant, Average (CgBdf1 BD2 [5]; CgBdf1 BD2 YF mutant, normalized peptide array signal): 0.859%; Raw data, YF mutant, Left (CgBdf1 BD2 [5]; CgBdf1 BD2 YF mutant, peptide array signal, left replicate): 0.01319; Raw data, YF mutant, Right (CgBdf1 BD2 [5]; CgBdf1 BD2 YF mutant, peptide array signal, right replicate): 0.003988
Cc1ccc(C(=N)NN)cc1 [Compound 66]	0.007561	2.32	0.03875	0.003085	0.308	0.003085	0.007798	0.717	0.00655	0.005521	0.276	0	–
Cc1ccc(-c2nc(=O)c(C)n[nH]2)cc1 [Compound 67]	0.09956	16	0.2253	0.002159	0.308	0.00401	0.06082	11	0.1541	0.007975	0.613	0.004294	–
Cc1ccc(-c2nnc(C)c(Cl)n2)cc1 [Compound 68]	0.003466	2.19	0.04033	0.003085	0.355	0.00401	0.004679	0.624	0.007798	0.004601	0.23	0	–
